Tested on: rabbit skeletal myofibrils (approximately 90% fast fibers)
Experiment: Activation of fast skeletal myofibrils (PUMA coupled-enzyme ATPase assay at pCa25)
Type: biochemical
Conditions: concentration at which the compound increased the enzymatic activity by 40%; calcium at pCa25; PM12 buffer pH 6.8
Protocol: Preparation of fast skeletal myofibrils. Rabbit skeletal myofibrils were prepared based upon the method of Herrmann et al. (Biochem. 32(28):7255-7263(1993). Myofibrils were prepared from rabbit psoas muscle purchased from Pel-Freez Biologicals (Arkansas) within 2 days of ordering, stored on ice. Minced muscle was homogenized in 10 volumes of ice-cold “standard” buffer (50 mM Tris, pH 7.4, 0.1 M potassium acetate, 5 mM KCl, 2 mM DTT, 0.2 mM PMSF, 10 μM leupeptin, 5 μM pepstatin, and 0.5 mM sodium azide) containing 5 mM EDTA and 0.5% Triton X-100 using an Omni-Macro homogenizer. Myofibrils were recovered by low speed centrifugation (3000 rpm for 10 minutes) and washed 2 times in the Triton X-100 containing buffer to ensure removal of cellular membrane. Following the Triton washes, myofibrils were washed 3 times in “standard” buffer containing 2 mM magnesium acetate. A final wash in assay buffer (12 mM PIPES, pH 6.8, 60 mM KCl, 1 mM DTT) was performed and brought to 10% sucrose for flash freezing in liquid nitrogen and storage at −80° C.
Activation of Fast Skeletal Myofibrils. Fast fiber activators were identified by measuring the enzymatic activity of muscle myofibril preparations using the proprietary PUMA™ (see, e.g., U.S. Pat. Nos. 6,410,254, 6,743,599, 7,202,051, and 7,378,254) assay system. Myofibril preparations consisted of rabbit skeletal muscle (approximately 90% fast fibers) that had been mechanically homogenized and washed with a detergent (triton X-100) to remove cellular membranes. This preparation retained all of the sarcomeric components in a native conformation and the enzymatic activity was still regulated by calcium. Compounds were tested using a myofibril suspension and a level of calcium sufficient to increase enzymatic activity of the myofibrils to 25% of their maximal rate (termed pCa25). Enzymatic activity was tracked via a pyruvate kinase and lactate dehydrogenase-coupled enzyme system. This assay regenerates myosin-produced ADP into ATP by oxidizing NADH, producing an absorbance change at 340 nm. The buffering system was 12 mM Pipes, 2 mM MgCl2, 1 mM DTT at pH 6.8 (PM12 buffer).

SMILES | Mean AC1.4
O=C(O)c1ccn(-c2cnc(NC[C@]3(c4ncccc4F)C[C@H](F)C3)nc2)c1 [1-[2-({[3-fluoro-1-(3-fluoro(2-pyridyl))cyclobutyl]methyl}amino)pyrimidin-5-yl]pyrrole-3-carboxylic acid] | D (D=>20 uM)
NC(=O)c1cnc(NCC2(c3ncccc3F)CCC2)nc1 [2-({[(3-fluoro-2-pyridyl)cyclobutyl]methyl}amino) pyrimidine-5-carboxamide] | D (D=>20 uM)
NC(=O)Cc1cnc(-c2cnc(NCC3(c4ncccc4F)CCC3)nc2)s1 [2-{2-[2-({[(3-fluoro-2-pyridyl)cyclobutyl]methyl}amino)pyrimidin-5-yl]-1,3-thiazol-5-yl}acetamide] | B (B=1-10 uM)
CC(C)(Nc1ncc(-c2cnn(CC(N)=O)c2)cn1)c1ncccc1Cl [2-[4-(2-{[1-(3-chloro(2-pyridyl))-isopropyl]amino}pyrimidin-5-yl)pyrazolyl]acetamide] | D (D=>20 uM)
CC(C)(Nc1ncc(-c2cnn(CCO)c2)cn1)c1ncccc1Cl [2-[4-(2-{[1-(3-chloro(2-pyridyl))-isopropyl]amino}pyrimidin-5-yl)pyrazolyl]ethan-1-ol] | D (D=>20 uM)
CC(C)(CNc1ncc(-c2ccc(C(N)=O)cc2)cn1)c1ccc(F)cc1 [4-(2-{[2-(4-fluorophenyl)-2-methylpropyl]amino}pyrimidin-5-yl)benzamide] | B (B=1-10 uM)
CN(C(=O)c1cnc(NCC2(c3ncccc3F)CCC2)nc1)c1nccs1 [[2-({[(3-fluoro(2-pyridyl))cyclobutyl)]methyl}amino) pyrimidin-5-yl]-N-methyl-N-(1,3-thiazol-2-yl)carboxamide] | D (D=>20 uM)
Cc1cnc(N)nc1-c1cnc(NC[C@]2(c3ncccc3F)C[C@H](F)C2)nc1 [[5-(2-amino-5-methylpyrimidin-4-yl)pyrimidin-2-yl]{[3-fluoro-1-(3-fluoro(2-pyridyl))cyclobutyl]methyl}amine] | D (D=>20 uM)
CC(C)(Nc1ncc(-c2ncc(C(N)=O)s2)cn1)c1cccc(OC(F)F)n1 [2-[2-({1-[6-(difluoromethoxy)(2-pyridyl)]-isopropyl}amino)pyrimidin-5-yl]-1,3-thiazole-5-carboxamide] | A (A=<1 uM)
CC(=O)NCc1cnc(-c2cnc(NC(C)(C)c3ncccc3F)nc2)s1 [N-{[2-(2-{[1-(3-fluoro(2-pyridyl))-isopropyl]amino}pyrimidin-5-yl)-1,3-thiazol-5-yl]methyl}acetamide] | D (D=>20 uM)
CC(C)(Nc1ncc(-c2cccc(C(N)=O)c2)cn1)c1cccc(OC(F)F)n1 [3-[2-({1-[6-(difluoromethoxy)(2-pyridyl)]-isopropyl}amino)pyrimidin-5-yl]benzamide] | A (A=<1 uM)
NC(=O)c1n[nH]c2ccc(-c3cnc(NC4(c5ncccc5F)CCC4)nc3)cc12 [5-(2-{[(3-fluoro-2-pyridyl)cyclobutyl]amino}pyrimidin-5-yl)-1H-indazole-3-carboxamide] | A (A=<1 uM)
CC(C)(Nc1ncc(-c2ncc(CN)s2)cn1)c1ncccc1Cl [{5-[5-(aminomethyl)(1,3-thiazol-2-yl)]pyrimidin-2-yl}[1-(3-chloro(2-pyridyl))-isopropyl]amine] | D (D=>20 uM)
O=c1cc(O)ccn1-c1cnc(NC[C@]2(c3ncccc3F)C[C@H](F)C2)nc1 [1-[2-({[3-fluoro--1-(3-fluoro(2-pyridyl))cyclobutyl]methyl)amino)pyrimidin-5-yl]-4-hydroxyhydropyridin-2-one] | D (D=>20 uM)
O=C(Nc1ccncc1)c1cnc(NCC2(c3ncccc3F)CCC2)nc1 [[2-({[(3-fluoro(2-pyridyl))cyclobutyl]methyl}amino)pyrimidin-5-yl]-N-(4-pyridyl)carboxamide] | B (B=1-10 uM)
CC(C)(CNc1ncc2c(n1)CN(C(=O)C(N)=O)CC2)c1ccc(F)cc1 [2-(2-{[2-(4-fluorophenyl)-2-methylpropyl]amino}(5,6,7,8-tetrahydropyridino[3,4-d]pyrimidin-7-yl))-2-oxoacetamide] | D (D=>20 uM)

Second part, the molecule after the results:

Mean AC1.4 | SMILES
D (D=>20 uM) | CC(C)(Nc1ncc(-c2cnn(CC(=O)O)c2)cn1)c1ncccc1Cl [2-[4-(2-{[1-(3-chloro(2-pyridyl))-isopropyl]amino}pyrimidin-5-yl)pyrazolyl]acetic acid]
D (D=>20 uM) | COc1ccnc(C(C)(C)Nc2ncc(-c3ncc(C(N)=O)s3)cn2)n1 [2-(2-{[1-(4-methoxypyrimidin-2-yl)-isopropyl]amino}pyrimidin-5-yl)-1,3-thiazole-5-carboxamide]
B (B=1-10 uM) | CSc1cccnc1C(C)(C)Nc1ncc(-c2cccc(C#N)c2)cn1 [3-(2-{[1-methyl-1-(3-methylthio(2-pyridyl))ethyl]amino}pyrimidin-5-yl)benzenecarbonitrile]
B (B=1-10 uM) | COc1nc(NC[C@]2(c3ncccc3F)C[C@H](F)C2)ncc1-c1ccccc1 [{[3-fluoro-1-(3-fluoro(2-pyridyl))cyclobutyl]methyl}(4-methoxy-5-phenylpyrimidin-2-yl)amine]
D (D=>20 uM) | Cc1nc(NC[C@]2(c3ncccc3F)C[C@H](F)C2)ncc1-c1ccc(CC(=O)O)cc1 [2-{4-[2-({[3-fluoro-1-(3-fluoro(2-pyridyl))cyclobutyl]methyl}amino)-4-methylpyrimidin-5-yl]phenyl}acetic acid]
A (A=<1 uM) | COc1nc(NC[C@]2(c3ncccc3F)C[C@H](F)C2)ncc1-c1cccc(C(N)=O)c1 [3-[2-({[3-fluoro-1-(3-fluoro(2-pyridyl))cyclobutyl]methyl}amino)-4-methoxypyrimidin-5-yl]benzamide]
A (A=<1 uM) | NC(=O)c1ccc(F)c(-c2cnc(NC3(c4ccc(F)cc4)CCC3)nc2)c1 [4-fluoro-3-(2-{[(4-fluorophenyl)cyclobutyl]amino}pyrimidin-5-yl)benzamide]
A (A=<1 uM) | CC(C)(CNc1ncc(-c2cccc(C(N)=O)c2)cn1)c1ccc(F)cc1 [3-(2-{[2-(4-fluorophenyl)-2-methylpropyl]amino}pyrimidin-5-yl)benzamide]
D (D=>20 uM) | COc1ccc(NC(=O)c2cnc(NCC3(c4ncccc4F)CCC3)nc2)cn1 [[2-({[(3-fluoro(2-pyridyl))cyclobutyl]methyl}amino)pyrimidin-5-yl]-N-(6-methoxy(3-pyridyl))carboxamide]
D (D=>20 uM) | CC(C)(Nc1ncc(-c2nc(C(N)=O)co2)cn1)c1ncccc1Cl [2-(2-{[1-(3-chloro(2-pyridyl))-isopropyl]amino}pyrimidin-5-yl)-1,3-oxazole-4-carboxamide]
D (D=>20 uM) | COCCNc1nc(NC[C@]2(c3ncccc3F)C[C@H](F)C2)ncc1-c1ccccc1 [[2-({[3-fluoro-1-(3-fluoro(2-pyridyl))cyclobutyl]methyl}amino-5-phenylpyrimidin-4-yl](2-methoxyethyl)amine]
D (D=>20 uM) | Fc1ccc(C2(Nc3ncc(Br)cn3)CCC2)cc1 [(5-bromopyrimidin-2-yl)[(4-fluorophenyl)cyclobutyl]amine]
B (B=1-10 uM) | CC(C)(CNc1ncc(-c2cncc(C(N)=O)c2)cn1)c1ccc(F)cc1 [5-(2-{[2-(4-fluorophenyl)-2-methylpropyl]amino}pyrimidin-5-yl)pyridine-3-carboxamide]
D (D=>20 uM) | CC(C)(CNc1ncc2c(n1)CN(C(N)=O)CC2)c1ccc(F)cc1 [2-{[2-(4-fluorophenyl)-2-methylpropyl]amino}-5,6,7,8-tetrahydropyridino[3,4-d]pyrimidine-7-carboxamide]
D (D=>20 uM) | CC(C)(Nc1ncc(-c2ncc(CNC(=O)CN)s2)cn1)c1ncccc1F [2-amino-N-{[2-(2-{[1-(3-fluoro(2-pyridyl))-isopropyl]amino}pyrimidin-5-yl)(1,3-thiazol-5-yl)]methyl}acetamide]
A (A=<1 uM) | NC(=O)c1ccc(F)c(-c2cnc(N[C@]3(c4ncccc4Cl)C[C@H](F)C3)nc2)c1 [3-(2-{[1-(3-chloro(2-pyridyl))-3-fluorocyclobutyl]amino}pyrimidin-5-yl)-4-fluorobenzamide]
C (C=10-20 uM) | CC(C)(Nc1ncc(-c2cn3cc(C(N)=O)ccc3n2)cn1)c1ncccc1Cl [2-(2-{[1-(3-chloro(2-pyridyl))-isopropyl]amino}pyrimidin-5-yl)-4-hydroimidazo[1,2-a]pyridine-6-carboxamide]
C (C=10-20 uM) | CC(=O)NCc1cnc(-c2cnc(NC(C)(C)c3ncccc3Cl)nc2)s1 [N-{[2-(2-{[1-(3-chloro(2-pyridyl))-isopropyl]amino)}pyrimidin-5-yl)-1,3-thiazol-5-yl]methyl]acetamide]
D (D=>20 uM) | CC(C)(Nc1nccc(-c2nccs2)n1)c1ncccc1Cl [[1-(3-chloro(2-pyridyl))-isopropyl](4-(1,3-thiazol-2-yl)pyrimidin-2-yl)amine]

Reference: US11369565B2, “Amino-pyrimidine skeletal muscle modulators” (Cytokinetics, Inc., priority 2010, dated 2022)
